Patent US9255090B2, “Heterocyclyl derivatives and their use as prostaglandin D2 receptor modulators” (Actelion Pharmaceuticals Ltd., priority 2012, dated 2016)

Legend:
[1] = test system: eosinophils; test: Eosinophil shape change assay with human plasma; type: cell-based; conditions: human plasma (50%), PGD2 100 nM activation, antagonistic activity
Source text: Eosinophil Shape Change Assay with Human Plasma
After obtaining informed consent, blood samples were drawn by venipuncture according to the protocol approved by the ethics committee of Basel, Switzerland. Polymorphonuclear leukocytes (containing eosinophils, basophils and neutrophils) were isolated using the Polymorphprep™ method (Axis-Shield). […] The polymorphonuclear cell fraction was harvested and depleted for erythrocytes by hypotonic saline lysis.
The polymorphonuclear cells were resuspended in assay buffer (1×PBS with Ca^2+/Mg^2+ supplemented with 0.1% BSA, 10 mM HEPES, and 10 mM Glucose, pH 7.4) at 5×10^6 cells/ml and stained with anti-CD49d-APC ((APC=Allophycocyanin) for 1 hour at RT. Test compounds, at various concentrations, were preincubated 10 min in human plasma (anticoagulated with a thrombin inhibitor). Then, human plasma was added to the polymorphonuclear cells to 50% of final assay volume with polymorphonuclear cells at 4×10^6 cells/ml. After incubation for 10 minutes at 37° C., the polymorphonuclear cells were activated for 5 min at 37° C. by addition of PGD2 at 100 nM final concentration. Activation was stopped by addition of 0.5 ml paraformaldehyde (1%).
Immediately after fixation with paraformaldehyde, the samples were analyzed by FACSCanto flow cytometer (BD Biosciences) and target cells were identified by their forward-scatter (FSC) and side-scatter (SSC) characteristics. Eosinophils were identified by the anti-CD49d-APC signal and their characteristic side-scatter (SSC) profile. Shape change responses, indicative of eosinophil activation, were quantified as the percent of cells with an increased forward-scatter.

[2] = target: hCRTH2 receptor (Homo sapiens (Human), UniProt Q9Y5Y4); test: hCRTH2 receptor membranes radioligand (3H-PGD2) displacement assay; type: binding; conditions: 3H-PGD2 radioligand displacement, HEK293-hCRTH2 membranes
Summary of the method: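 Compound was first mixed with buffer, then 3H-PGD2 was added at 2.5 nM, and the reaction was started with hCRTH2 membranes from HEK293 cells at 20 μg/well. After 90 min at room temperature, mixtures were filtered and washed with ice-cold buffer, and retained radioactivity was counted.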

hCRTH2 receptor, sequence (Q9Y5Y4 whole entry): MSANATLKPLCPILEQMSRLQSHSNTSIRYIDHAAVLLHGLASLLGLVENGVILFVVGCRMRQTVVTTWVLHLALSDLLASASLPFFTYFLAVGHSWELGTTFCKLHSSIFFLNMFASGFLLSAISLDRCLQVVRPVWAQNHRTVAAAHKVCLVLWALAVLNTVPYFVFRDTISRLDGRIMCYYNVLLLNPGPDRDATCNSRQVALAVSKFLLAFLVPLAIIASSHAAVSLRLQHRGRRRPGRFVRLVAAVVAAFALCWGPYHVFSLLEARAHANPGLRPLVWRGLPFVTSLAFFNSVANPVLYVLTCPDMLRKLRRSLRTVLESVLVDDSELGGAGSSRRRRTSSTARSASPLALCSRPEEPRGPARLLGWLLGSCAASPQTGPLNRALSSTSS

SMILES | IC50 ([1]; Homo sapiens, Eosinophil) [nM] | IC50 [2] [nM] | IC50 [1] [nM]
COc1ccc(CC(=O)O)cc1-c1ccc(F)c2c1CN(C(=O)[C@@H]1C[C@H]1c1ccc(F)cc1)CC2 (racemic) [Example 1, (±)-(3-{5-Fluoro-2-[trans-2-(4-fluoro-phenyl)-cyclopropanecarbonyl]-1,2,3,4-tetrahydro-isoquinolin-8-yl}-4-methoxy-phenyl)-acetic acid] | 8 | 1.99 | 
COc1ccc(CC(=O)O)cc1-c1ccc(F)c2c1CN(C(=O)[C@@H]1C[C@H]1c1ccccc1F)CC2 (racemic) [Example 5, (±)-(3-{5-Fluoro-2-[trans-2-(2-fluoro-phenyl)-cyclopropanecarbonyl]-1,2,3,4-tetrahydro-isoquinolin-8-yl}-4-methoxy-phenyl)-acetic acid] | 12 | 3.64 | 
COc1ccc(CC(=O)O)cc1-c1ccc(F)c2c1CCN(C(=O)[C@@H]1C[C@H]1c1ccccc1)CC2 (racemic) [Example 36, (±)-{3-[9-Fluoro-3-(trans-2-phenyl-cyclopropanecarbonyl)-2,3,4,5-tetrahydro-1H-benzo[d]azepin-6-yl]-4-methoxy-phenyl}-acetic acid] | > 1000 | 19.9 | 
COc1ccc(CC(=O)O)cc1-c1ccc(F)c2c1CN(C(=O)[C@@H]1C[C@H]1c1ccccc1)C2 (racemic) [Example 37, (±)-{3-[7-Fluoro-2-(trans-2-phenyl-cyclopropanecarbonyl)-2,3-dihydro-1H-isoindol-4-yl]-4-methoxy-phenyl}-acetic acid] | 289 |  | 
COc1ccc(CC(=O)O)cc1-c1ccc(F)c2c1CN(C(=O)[C@@H]1C[C@H]1c1cccc(F)c1)CC2 (racemic) [Example 48, (±)-(3-{5-Fluoro-2-[trans-2-(3-fluoro-phenyl)-cyclopropanecarbonyl]-1,2,3,4-tetrahydro-isoquinolin-8-yl}-4-methoxy-phenyl)-acetic acid] | 42 |  | 
COc1ccc(CC(=O)O)cc1-c1ccc(F)c2c1CN(C(=O)[C@@H]1C[C@H]1c1ccccc1)CC2 (racemic) [Example 60, (±)-{3-[5-Fluoro-2-(trans-2-phenyl-cyclopropanecarbonyl)-1,2,3,4-tetrahydro-isoquinolin-8-yl]-4-methoxy-phenyl}-acetic acid] | 13 | 2.64 | 
COc1ccc(CC(=O)O)cc1-c1ccc(C(F)(F)F)c2c1CN(C(=O)[C@@H]1C[C@H]1c1ccccc1)CC2 (racemic) [Example 83, (±)-{4-Methoxy-3-[2-(trans-2-phenyl-cyclopropanecarbonyl)-5-trifluoromethyl-1,2,3,4-tetrahydro-isoquinolin-8-yl]-phenyl}-acetic acid] | > 1000 | 26.1 | 
CCOc1ccc(CC(=O)O)cc1-c1ccc(F)c2c1CN(C(=O)CC1OCCc3ccccc31)CC2 (racemic) [Example 224] | 10 | 8.2 | 
CCOc1ccc(CC(=O)O)cc1-c1ccc(F)c2c1CN(C(=O)CC1CCOc3ccccc31)CC2 (racemic) [Example 226] | 43 | 12.9 | 
CCOc1ccc(CC(=O)O)cc1-c1ccc(F)c2c1CN(C(=O)CC1COc3ccccc31)CC2 (racemic) [Example 227] | 38 |  | 
CCOc1ccc(CC(=O)O)cc1-c1ccc(F)c2c1CN(C(=O)CC1COCc3ccccc31)CC2 (racemic) [Example 228] | 8 |  | 
CCOc1cc(CC(=O)O)ccc1-c1ccc(F)c2c1CN(C(=O)CC1OCCc3ccccc31)CC2 (racemic) [Example 229] | 15 | 0.7 | 
CCOc1cc(CC(=O)O)ccc1-c1ccc(F)c2c1CN(C(=O)CC1COc3ccccc31)CC2 (racemic) [Example 235] | 20 | 0.3 | 
CCOc1cc(CC(=O)O)ccc1-c1ccc(F)c2c1CN(C(=O)CC1CCOc3ccccc31)CC2 (racemic) [Example 236] | 12 | 0.8 | 
COc1ccc(CC(=O)O)cc1-c1ccc(F)c2c1CN(C(=O)CC1CC(C)(C)Oc3ccccc31)CC2 (racemic) [Example 240] | 31 |  | 
COc1ccc(CC(=O)O)cc1-c1ccc(F)c2c1CN(C(=O)CC1CCOc3cc(F)ccc31)CC2 (racemic) [Example 243] | 92 | 20.6 | 
COc1ccc(CC(=O)O)cc1-c1ccc(F)c2c1CN(C(=O)CN(C)C(c1ccccc1)c1ccc(Cl)cc1)CC2 (racemic) [Example 253] | 399 | 10.6 | 

SMILES | IC50 ([1]; Homo sapiens, Eosinophil) [nM] | IC50 [2] [nM] | IC50 [1] [nM]
COc1ccc(CC(=O)O)cc1-c1ccc(F)c2c1CN(C(=O)CC1OCCc3ccccc31)CC2 (racemic) [Example 257] | 35 | 2.2 | 
COc1ccc(CC(=O)O)cc1-c1ccc(F)c2c1CN(C(=O)CC1CCc3ccccc3C1)CC2 (racemic) [Example 260] | 56 | 1.4 | 
COc1ccc(CC(=O)O)cc1-c1ccc(F)c2c1CN(C(=O)CC1CCc3ccccc31)CC2 (racemic) [Example 261] | 86 | 3.1 | 
COc1ccc(CC(=O)O)cc1-c1ccc(F)c2c1CN(C(=O)CC1CCOc3ccccc31)CC2 (racemic) [Example 262] | 66 | 8.4 | 
COc1cc(CC(=O)O)ccc1-c1ccc(F)c2c1CN(C(=O)CC1CCOc3ccccc31)CC2 (racemic) [Example 359] | 28 |  | 
COc1ccc(CC(=O)O)cc1-c1ccc(F)c2c1CN(C(=O)[C@@H]1C[C@H]1c1cccc(F)c1)CC2 [Example 65, (3-{5-Fluoro-2-[(1R,2R)-2-(3-fluoro-phenyl)-cyclopropanecarbonyl]-1,2,3,4-tetrahydro-isoquinolin-8-yl}-4-methoxy-phenyl)-acetic acid] | 10 |  | 
COc1cc(CC(=O)O)ccc1-c1ccc(F)c2c1CN(C(=O)CC1CCOc3ccccc31)CC2 (centres unmarked) [Example 200, {4-[2-(2-Chroman-4-yl-acetyl)-5-fluoro-1,2,3,4-tetrahydro-isoquinolin-8-yl]-3-methoxy-phenyl}-acetic acid] | 50 |  | 
COc1cc(CC(=O)O)ccc1-c1ccc(F)c2c1CN(C(=O)CC1CCOc3ccccc31)CC2 (centres unmarked) [Example 201, {4-[2-(2-Chroman-4-yl-acetyl)-5-fluoro-1,2,3,4-tetrahydro-isoquinolin-8-yl]-3-methoxy-phenyl}-acetic acid] |  |  | 31
CCOc1ccc(CC(=O)O)cc1-c1ccc(F)c2c1CN(C(=O)CC1COc3ccccc31)CC2 (centres unmarked) [Example 207, {3-[2-(2-2,3-Dihydro-benzofuran-3-yl-acetyl)-5-fluoro-1,2,3,4-tetrahydro-isoquinolin-8-yl]-4-ethoxy-phenyl}-acetic acid] |  |  | 15
CCOc1ccc(CC(=O)O)cc1-c1ccc(F)c2c1CN(C(=O)CC1COc3ccccc31)CC2 (centres unmarked) [Example 208, {3-[2-(2-2,3-Dihydro-benzofuran-3-yl-acetyl)-5-fluoro-1,2,3,4-tetrahydro-isoquinolin-8-yl]-4-ethoxy-phenyl}-acetic acid] |  |  | 42
CCOc1ccc(CC(=O)O)cc1-c1ccc(F)c2c1CN(C(=O)CC1COCc3ccccc31)CC2 (centres unmarked) [Example 209, {4-Ethoxy-3-[5-fluoro-2-(2-isochroman-4-yl-acetyl)-1,2,3,4-tetrahydro-isoquinolin-8-yl]-phenyl}-acetic acid] | 13 |  | 
CCOc1ccc(CC(=O)O)cc1-c1ccc(F)c2c1CN(C(=O)CC1COCc3ccccc31)CC2 (centres unmarked) [Example 210, {4-Ethoxy-3-[5-fluoro-2-(2-isochroman-4-yl-acetyl)-1,2,3,4-tetrahydro-isoquinolin-8-yl]-phenyl}-acetic acid] |  |  | 11
CCOc1cc(CC(=O)O)ccc1-c1ccc(F)c2c1CN(C(=O)NCc1ccccc1OC)CC2 [Example 445, {3-Ethoxy-4-[5-fluoro-2-(2-methoxy-benzylcarbamoyl)-1,2,3,4-tetrahydro-isoquinolin-8-yl]-phenyl}-acetic acid] |  | 2.5 | 
CCOc1cc(CC(=O)O)ccc1-c1ccc(F)c2c1CN(C(=O)NCc1ccccc1)CC2 [Example 446, [4-(2-Benzylcarbamoyl-5-fluoro-1,2,3,4-tetrahydro-isoquinolin-8-yl)-3-ethoxy-phenyl]-acetic acid] |  | 4.7 | 
CCCNC(=O)N1CCc2c(F)ccc(-c3ccc(CC(=O)O)cc3OCC)c2C1 [Example 447, [3-Ethoxy-4-(5-fluoro-2-propylcarbamoyl-1,2,3,4-tetrahydro-isoquinolin-8-yl)-phenyl]-acetic acid] |  | 78.2 | 
CCOc1cc(CC(=O)O)ccc1-c1ccc(F)c2c1CN(C(=O)NCc1ccccn1)CC2 [Example 448, (3-Ethoxy-4-{5-fluoro-2-[(pyridin-2-ylmethyl)-carbamoyl]-1,2,3,4-tetrahydro-isoquinolin-8-yl}-phenyl)-acetic acid] |  | 9.2 | 
CCOc1ccc(CC(=O)O)cc1-c1ccc(F)c2c1CN(C(=O)NCc1ccccn1)CC2 [Example 449, (4-Ethoxy-3-{5-fluoro-2-[(pyridin-2-ylmethyl)-carbamoyl]-1,2,3,4-tetrahydro-isoquinolin-8-yl}-phenyl)-acetic acid] |  | 14.2 | 
